Reference: paper PMC12297039, “Design, Synthesis, and Evaluation of Cytotoxic Effects of Functional Fatty Acid Derivatives as Potential Antineoplastic Agents for Breast Cancer” (Iranian Journal of Pharmaceutical Research : IJPR, 2025)
Like-named read-outs stand apart in the source and are kept apart here.

Experiments:
MCF-7 cells [1] = assay: MTT cytotoxicity assay on breast adenocarcinoma (MCF-7) cells; format: cell-based, human; conditions: for EC50: read-out: MCF-7 EC50 (μM) ± SE; for Selectivity Index (SI), MCF-7: ratio of EC50 against fibroblasts to EC50 against MCF-7 cells
Description: (§1) The cytotoxic effects of DHA and LA derivatives against the breast cancer cell line (MCF-7) were assessed, with results compared to human dermal fibroblasts (HDFs) as a normal cell line. Both cell lines were provided by the Pasteur Institute of Iran (IPI). The cells were cultured in RPMI medium containing 10% fetal bovine serum (FBS) and 1% antibiotic solution (comprising 10,000 units of penicillin and 10 mg streptomycin in 0.9% NaCl). The cultures were incubated at 37°C with 5% CO2.
(§2) The MTT assay was used as a standard method for evaluating the inhibitory effect of compounds. This colorimetric assay is based on the conversion of yellow MTT (3-[4,5-dimethylthiazol-2-yl]-2,5-diphenyltetrazolium bromide) to purple formazan crystals via enzymatic reduction by NAD(P)H-dependent oxidoreductase enzymes in metabolically active cells ([35]). According to a previously reported method, after 24 hours of incubation of cells (15,000 cells per well), six different concentrations of D1-D8 (6.25 to 200 μM) and L1-L8 (3.125 to 100 μM) were added to the wells, with each concentration performed in triplicate. After 48 hours of incubation, the culture medium was completely removed from the wells. MTT solution, prepared at a concentration of 0.5 mg/mL in phosphate-buffered saline (PBS), was added (100 µL per well) and incubated for 4 hours to allow metabolically active cells to reduce the MTT to insoluble formazan crystals. Subsequently, 100 µL of solubilizing solvent containing 16% sodium dodecyl sulfate (SDS) was added to each well, followed by an additional 2 hours of incubation ([36]). Cell viability was determined using a Cell Imaging Multi-Mode Microplate Reader (Biotek, Cytation 3, USA), measuring absorbance at 570 nm ([37], [38]).

[2] = tested on: human dermal fibroblasts (HDFs); assay: MTT cytotoxicity assay on normal human dermal fibroblasts (HDFs); format: cell-based; conditions: read-out: HDF EC50 (μM) ± SE
Description: as §1, §2

MCF-7 cells [3] = assay: Annexin V-FITC/PI flow cytometry, apoptosis and necrosis; format: cell-based, human; conditions: MCF-7, annexin V-FITC/PI staining, ½x, x, 2x EC50
Description: Apoptosis and necrosis were measured using a dead cell apoptosis kit with annexin V-FITC and propidium iodide (PI) (ApoFlowExFITC, Exbio, Czech Republic) according to the manufacturer’s protocol. The MCF-7 cells were cultured as described in the cell culture section (section 3.3.1). […] Cells were collected through trypsinization, rinsed twice with PBS, and then resuspended in 500 μL of binding buffer. The cell suspensions were subsequently incubated with 5 μL of annexin V-FITC and 5 μL of PI for 10 minutes at room temperature in a dark environment. The cells were then assessed immediately using flow cytometry, and the data were analyzed using FlowJo version 7.6.5 (Tree Star, Inc., Ashland, USA).
A distinguishing characteristic of cells undergoing apoptosis is the translocation of phosphatidylserine from the inner to the outer layers of the plasma membrane, which can be identified by annexin V in this assay. The PI identifies necrotic cells with compromised plasma membranes ([39]-[44]).

MCF-7 breast cancer cell = tested on: MCF-7 breast cancer cell; parameters: method as in PMID 31652764; conditions: MCF-7, MTT assay, 150 μM DHA; cited from earlier work
[4] = Homo sapiens, MCF7, MTT, 48 h incubation, MCF-7
[5] = Fibroblast, MTT, 48 h incubation, normal human dermal fibroblasts

| Compound | EC50 (MCF-7 cells [1]; [4]) | EC50 [2, 5] | further results |
| --- | --- | --- | --- |
| 4-((4Z,7Z,10Z,13Z,16Z,19Z)-docosa-4,7,10,13,16,19-hexaen-1-yl)morpholine [Compound D3] | – | – | EC50 (MCF-7 cells [1]; MTT, 48 h incubation, MCF-7): 16 ± 2.89 µM; EC50 ([2]; MTT, 48 h incubation, normal human dermal fibroblasts): > 100 µM; mode of cell death (MCF-7 cells [3]): predominantly induced apoptosis rather than necrosis |
| CC/C=C\C/C=C\C/C=C\C/C=C\C/C=C\C/C=C\CCC(=O)NCCO [Compound D1, (4Z,7Z,10Z,13Z,16Z,19Z)-N-(2-hydroxyethyl) docosa-4,7,10,13,16,19-hexaenamide] | – | – | EC50 (MCF-7 cells [1]; Homo sapiens, MCF7, 48 h): ≥ 100 µM; EC50 ([2]; Homo sapiens, Fibroblast, 48 h): ≥ 100 µM |
| CC/C=C\C/C=C\C/C=C\C/C=C\C/C=C\C/C=C\CCC(=O)N(CCO)CCO [Compound D2, (4Z,7Z,10Z,13Z,16Z,19Z)-N,N-bis(2-hydroxyethyl)docosa-4,7,10,13,16,19-hexaenamide] | ≥ 100 µM | > 100 µM | – |
| CC/C=C\C/C=C\C/C=C\C/C=C\C/C=C\C/C=C\CCC(=O)Nc1ccc(O)cc1 [Compound D4, (4Z,7Z,10Z,13Z,16Z,19Z)-N-(4-hydroxyphenyl)docosa-4,7,10,13,16,19-hexaenamide] | 74.3 ± 1.41 µM | > 100 µM | – |
| CC/C=C\C/C=C\C/C=C\C/C=C\C/C=C\C/C=C\CCC(=O)NCCc1ccccc1 [Compound D5, (4Z,7Z,10Z,13Z,16Z,19Z)-N-phenethyldocosa-4,7,10,13,16,19-hexaenamide] | ≥ 100 µM | – | – |
| CC/C=C\C/C=C\C/C=C\C/C=C\C/C=C\C/C=C\CCC(=O)N1CCN(C)CC1 [Compound D6, (4Z,7Z,10Z,13Z,16Z,19Z)-1-(4-methylpiperazin-1-yl) docosa-4,7,10,13,16,19-hexaen-1-one] | ≥ 100 µM | – | – |
| CC/C=C\C/C=C\C/C=C\C/C=C\C/C=C\C/C=C\CCC(=O)NCC(O)CO (stereo not shown) [Compound D7, (4Z,7Z,10Z,13Z,16Z,19Z)-N-(2,3-dihydroxypropyl) docosa-4,7,10,13,16,19-hexaenamide] | 98.6 ± 1.19 µM | > 100 µM | – |
| CC/C=C\C/C=C\C/C=C\C/C=C\C/C=C\C/C=C\CCC(=O)NCCN [Compound D8, (4Z,7Z,10Z,13Z,16Z,19Z)-N-(2-aminoethyl) docosa-4,7,10,13,16,19-hexaenamide] | 86 ± 5.41 µM | > 100 µM | – |
| CCCCC/C=C\C/C=C\CCCCCCCC(=O)NCCO [Compound L1, (9Z,12Z)-N-(2-hydroxyethyl) octadeca-9,12-dienamide] | ≥ 100 µM | – | – |
| CCCCC/C=C\C/C=C\CCCCCCCC(=O)N(CCO)CCO [Compound L2, (9Z,12Z)-N,N-bis(2-hydroxyethyl) octadeca-9,12-dienamide] | ≥ 100 µM | – | – |
| CCCCC/C=C\C/C=C\CCCCCCCC(=O)N1CCOCC1 [Compound L3, (9Z,12Z)-1-morpholinooctadeca-9,12-dien-1-one] | 24.6 ± 1.81 µM | ≥ 100 µM | Selectivity Index (SI), MCF-7 (MCF-7 cells [1]): 6.88; mode of cell death (MCF-7 cells [3]): predominantly induced apoptosis rather than necrosis |
| CCCCC/C=C\C/C=C\CCCCCCCC(=O)Nc1ccc(O)cc1 [Compound L4, (9Z,12Z)-N-(4-hydroxyphenyl) octadeca-9,12-dienamide] | 52.4 ± 6.79 µM | ≥ 100 µM | Selectivity Index (SI), MCF-7 (MCF-7 cells [1]): 3.53 |
| CCCCC/C=C\C/C=C\CCCCCCCC(=O)NCC(O)CO (stereo not shown) [Compound L7, (9Z,12Z)-N-(2,3-dihydroxypropyl) octadeca-9,12-dienamide] | 19.2 ± 2.93 µM | 64.8 ± 5.72 µM | Selectivity Index (SI), MCF-7 (MCF-7 cells [1]): 3.37; mode of cell death (MCF-7 cells [3]): predominantly induced apoptosis rather than necrosis |
| CC/C=C\C/C=C\C/C=C\C/C=C\C/C=C\C/C=C\CCC(=O)O [DHA, docosahexaenoic acid] | – | – | cell viability (MCF-7 breast cancer cell): significantly reduced |
| N.N.[Cl][Pt][Cl] [cisplatin, reference compound] | – | – | EC50 (MCF-7 cells [1]; MTT, 48 h incubation, MCF-7): 0.85 µM; Selectivity Index (SI), MCF-7 (MCF-7 cells [1]): 1.18 |
